Assays:
[1] = target: T1, aryl hydrocarbon receptor (AhR) (Homo sapiens, UniProt P35869); assay: AhR luciferase reporter assay in HepG2 cells; assay type: cell-based
T1 construct: endogenous in cells; host or cells: HepG2
T1 sequence (P35869 11-848): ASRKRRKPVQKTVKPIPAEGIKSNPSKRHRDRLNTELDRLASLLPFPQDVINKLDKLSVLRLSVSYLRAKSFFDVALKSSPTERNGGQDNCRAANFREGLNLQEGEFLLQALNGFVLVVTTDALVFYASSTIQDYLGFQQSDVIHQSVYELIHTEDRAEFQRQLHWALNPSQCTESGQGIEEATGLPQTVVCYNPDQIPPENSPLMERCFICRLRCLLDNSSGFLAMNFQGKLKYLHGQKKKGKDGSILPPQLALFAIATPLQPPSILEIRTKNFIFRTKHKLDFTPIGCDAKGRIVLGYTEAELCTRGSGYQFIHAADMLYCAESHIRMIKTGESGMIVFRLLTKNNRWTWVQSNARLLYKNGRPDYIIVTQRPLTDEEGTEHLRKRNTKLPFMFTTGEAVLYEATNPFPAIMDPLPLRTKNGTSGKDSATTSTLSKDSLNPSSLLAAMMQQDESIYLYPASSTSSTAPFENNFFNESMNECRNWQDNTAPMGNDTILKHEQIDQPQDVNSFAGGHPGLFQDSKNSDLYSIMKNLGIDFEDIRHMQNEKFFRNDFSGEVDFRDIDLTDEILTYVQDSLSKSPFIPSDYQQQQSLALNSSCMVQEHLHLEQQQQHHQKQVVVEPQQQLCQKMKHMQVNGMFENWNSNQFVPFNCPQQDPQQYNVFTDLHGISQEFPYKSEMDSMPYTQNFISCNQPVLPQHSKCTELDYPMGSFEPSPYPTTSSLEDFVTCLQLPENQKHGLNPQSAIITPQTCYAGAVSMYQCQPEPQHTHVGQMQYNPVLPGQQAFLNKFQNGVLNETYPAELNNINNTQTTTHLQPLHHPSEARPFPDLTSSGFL
Protocol: HepG2 cells were transiently transfected overnight with the construct (1200 bp portion of the human CYP1A1 promoter region containing 2 copies of the functional consensus sequence for the DRE in luc2P luciferase vector (SwitchGear Genomics cat# 114555, Menlo Park, CA) using lipofectin (Invitrogen Life Technologies) at 500 ng construct per million cells. Following transfection, the cells were replated in a 96-well format and dosed for 24 h with 0.1% (v/v) DMSO vehicle, 3-MC at 0.05, 0.1, 0.5, 1, 5, 10 μM, and A-998679 at 1.5625, 3.125, 6.25, 12.5, 25, and 50 μM. Luminescence signal was generated using the Dual-Luciferase Reporter Assay System (Promega, Madison, WI) and detected with a Tecan Genios Pro reader (Männedorf, Switzerland).

AhR = target: T2, AhR (Homo sapiens, UniProt P35869); assay: AhR nuclear translocation assay in HepG2 cells; assay type: cell-based; conditions: for AhR nuclear staining (% positive cells) 2 h: vehicle 15.6; for AhR nuclear staining (% positive cells) 24 h: vehicle 3.4
T2 construct: endogenous in cells; host or cells: HepG2
T2 sequence (P35869 11-848): T1 sequence (P35869 11-848)
Protocol: HepG2 cells were plated in Lab-Tek II Chamber slides (Nalgene, Rochester, NY) at a seeding density of 50,000 cells/well. The cells were allowed to attach overnight and were treated for 2 h or 24 h with 10 or 40 μM A-998679, 2 μM 3-methylchloranthrene (3-MC) as a positive control, or 0.1% (v/v) DMSO vehicle. The cells were fixed in fresh 3% paraformaldehyde solution in PBS followed by a PBS wash, and were then permeabilized for 5 min using 0.2% Triton X-100 in PBS followed by another PBS wash. The cells were then incubated with blocking buffer consisting of 1% BSA/PBS solutions and immediately incubated with a 1:50 dilution of rabbit polyclonal antibody to AhR (Abcam, Cambridge, MA catalog# 63636) for 1 h at 37°C. Cells were then washed with PBS, re-blocked for 10 min, and stained with an Alexa 546 donkey anti-rabbit secondary antibody (diluted 1:200; Invitrogen Life Technologies) for 45 min at 37°C. The cells were then washed with PBS, stained with 0.5 μM Hoescht solution for 15 min, and again washed with PBS. The chamber slides were sealed and examined under the microscope. Images were acquired with a SPOT RT SE digital camera (Diagnostic Instruments, Sterling Heights, MI) mounted on a Leica (Wetzlar, Germany) DMIRE inverted florescence microscope using a 20× objective. Image acquisition was done using Metamorph® software (Molecular Devices, Sunnyvale, CA) and percent translocation of the AhR probe was quantitated using MetaXpress (Molecular Devices). Twenty microscope fields were evaluated per well (~3000–6000 cells/well).

rat Cyp 2C12 = target: T3, rat Cyp 2C12 (Rattus norvegicus, UniProt P11510); assay: Recombinant rat Cyp phenotype profiling, 2C12; assay type: in vitro ADME; conditions: 60 min
T3 construct: purchased BD Gentest; host or cells: baculovirus infected insect cells
Protocol: (§1) Identification of the drug metabolizing enzymes (DMEs) of A-998679 was studied in cDNA expressed recombinant enzymes prepared from baculovirus infected insect cells over-expressing rat Cyp isoforms (BD Gentest, Woburn, MA) as listed in Table 2. Incubations were conducted in duplicate using Supersomes. The incubation mixture contained 100 pmol/ml of enzymes, except for Cyp1a1 (200 pmol/ml), 0.1 or 0.21 μM of [^3H]A-998679 in 100 mM phosphate buffer (pH 7.4). Reactions were initiated with the addition of NADPH at a final concentration of 1 mM and incubated at 37°C for 60 min. At the end of the incubation period, the incubations were terminated by the addition of acetonitrile/ethanol (50/50, v/v) solution. Insect control samples lacking expressed enzyme were used as negative control. The degree of metabolism of A-998679 was assessed by percent of parent remaining using the radio-HPLC method described below.
(§2) Radiolabeled components from the above assays were profiled following separation by HPLC with on line radioflow detector. The system consisted of an Agilent 1100 Series quaternary pump and autosampler connected to a Packard 500TR flow scintillation detector. The data were processed using the Radiomatic™ Flo-one® software v3.65. The scintillant (Perkin Elmer FLO-SCINT™ III) flow was maintained at 3 ml/min. […]

rat Cyp 2C13 = target: T4, rat Cyp 2C13 (Rattus norvegicus, UniProt P20814); assay: Recombinant rat Cyp phenotype profiling, 2C13; assay type: in vitro ADME; conditions: 60 min
T4 construct: purchased BD Gentest; host or cells: baculovirus infected insect cells
Protocol: as §1, §2

rat Cyp 2E1 = target: T5, rat Cyp 2E1 (Rattus norvegicus, UniProt P05182); assay: Recombinant rat Cyp phenotype profiling, 2E1; assay type: in vitro ADME; conditions: 60 min
T5 construct: purchased BD Gentest; host or cells: baculovirus infected insect cells
Protocol: as §1, §2

T4 sequence (P20814 whole entry): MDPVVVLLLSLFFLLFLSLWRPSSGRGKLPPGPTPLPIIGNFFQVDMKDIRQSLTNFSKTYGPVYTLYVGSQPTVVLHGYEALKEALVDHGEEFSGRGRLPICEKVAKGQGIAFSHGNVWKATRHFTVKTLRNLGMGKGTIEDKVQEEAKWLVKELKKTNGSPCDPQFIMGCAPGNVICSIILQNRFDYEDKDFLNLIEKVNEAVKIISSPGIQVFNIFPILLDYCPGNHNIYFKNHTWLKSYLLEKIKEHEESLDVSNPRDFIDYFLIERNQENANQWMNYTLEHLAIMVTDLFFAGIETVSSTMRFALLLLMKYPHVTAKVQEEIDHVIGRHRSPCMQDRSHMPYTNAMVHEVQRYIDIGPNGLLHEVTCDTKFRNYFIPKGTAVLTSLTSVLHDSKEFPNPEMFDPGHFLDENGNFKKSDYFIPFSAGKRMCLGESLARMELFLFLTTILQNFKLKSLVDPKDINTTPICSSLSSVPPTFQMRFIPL
T3 sequence (P11510 whole entry): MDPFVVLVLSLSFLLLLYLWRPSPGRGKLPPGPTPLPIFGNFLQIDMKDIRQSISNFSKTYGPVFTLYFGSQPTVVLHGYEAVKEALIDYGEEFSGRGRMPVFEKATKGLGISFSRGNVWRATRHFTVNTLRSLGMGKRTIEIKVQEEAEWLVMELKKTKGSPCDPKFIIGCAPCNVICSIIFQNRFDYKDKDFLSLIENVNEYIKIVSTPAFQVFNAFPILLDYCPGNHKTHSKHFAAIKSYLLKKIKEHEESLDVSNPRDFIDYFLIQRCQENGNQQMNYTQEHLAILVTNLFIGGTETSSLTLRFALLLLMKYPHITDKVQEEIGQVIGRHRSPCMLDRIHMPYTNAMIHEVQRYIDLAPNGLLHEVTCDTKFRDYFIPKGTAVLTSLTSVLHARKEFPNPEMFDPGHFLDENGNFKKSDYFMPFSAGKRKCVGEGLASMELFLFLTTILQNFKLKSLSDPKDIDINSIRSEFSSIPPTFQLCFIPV
T5 sequence (P05182 whole entry): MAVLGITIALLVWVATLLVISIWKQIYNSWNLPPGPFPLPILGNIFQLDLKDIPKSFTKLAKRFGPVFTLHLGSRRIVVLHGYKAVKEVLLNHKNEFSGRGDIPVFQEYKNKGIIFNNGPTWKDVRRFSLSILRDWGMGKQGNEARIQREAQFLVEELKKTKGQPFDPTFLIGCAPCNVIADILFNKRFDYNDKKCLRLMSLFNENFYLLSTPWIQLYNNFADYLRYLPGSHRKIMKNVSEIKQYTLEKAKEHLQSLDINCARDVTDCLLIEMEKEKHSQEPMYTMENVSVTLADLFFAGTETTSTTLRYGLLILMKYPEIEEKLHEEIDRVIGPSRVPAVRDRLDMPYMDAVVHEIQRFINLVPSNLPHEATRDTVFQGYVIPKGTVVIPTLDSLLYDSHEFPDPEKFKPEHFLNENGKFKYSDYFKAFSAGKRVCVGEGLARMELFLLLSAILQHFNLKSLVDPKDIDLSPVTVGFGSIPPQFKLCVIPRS

lowest level activating the DRE ([1]; gene reporter assay): ~ 6 μM
EC50 ([1]; luciferase reporter with human DRE construct, 24 h, read-out: EC50, activation of AhR signaling): 16.2 µM
maximal increase over vehicle ([1]; luciferase reporter, 24 h): 56 fold
AhR nuclear staining (% positive cells) 2 h (AhR; 10 μM): 18.8 % positive cells
AhR nuclear staining (% positive cells) 24 h (AhR; 10 μM): 4.5 % positive cells
AhR nuclear staining (% positive cells) 2 h (AhR; 40 μM): 29.6 % positive cells
AhR nuclear staining (% positive cells) 24 h (AhR; 40 μM): 6.3 % positive cells
% parent remaining (rat Cyp 2C12; recombinant rat Cyp 2C12, 0.10 μM): 100%
% parent remaining (rat Cyp 2C12; recombinant rat Cyp 2C12, 0.21 μM): 100%
% parent remaining (rat Cyp 2C13; recombinant rat Cyp 2C13, 0.10 μM): 100%
% parent remaining (rat Cyp 2C13; recombinant rat Cyp 2C13, 0.21 μM): 100%
% parent remaining (rat Cyp 2E1; recombinant rat Cyp 2E1, 0.10 μM): 95.5%
% parent remaining (rat Cyp 2E1; recombinant rat Cyp 2E1, 0.21 μM): 91.9%
Compound: N#Cc1cccc(-c2noc(-c3cccnc3)n2)c1 [A-998679, 3-(5-pyridin-3-yl-1,2,4-oxadiazol-3-yl) benzonitrile]

Source: paper PMC3481155, “AhR activation underlies the CYP1A autoinduction by A-998679 in rats” (Frontiers in Genetics, 2012)
